Results: patent US20070015823A1, “Ambruticin VS compounds” (priority 2004, published 2007)
In brackets after ≈: the same amount, converted by molar mass. Read-outs that look alike come from different tables or passages of the source.

Columns and labels:
A. flavus ATCC 204304 = test: Broth microdilution antifungal susceptibility, NCCLS M38-A; format: cell-based, Aspergillus flavus; details: minimal concentration inhibiting >95% growth, average of at least two assays (except I-l and I-x)
S. apiospermum = test: as above; format: cell-based, Scedosporium apiospermum; details: for MIC: Scedosporium apiospermum, 50% growth inhibition, range = minimum and maximum of multiple assays
Blastomyces dermatitidis = test: as above; format: cell-based; details: for MIC: Blastomyces dermatitidis
C. posadasii = test: microbe, parasite or virus in culture; format: cell-based, Coccidioides posadasii; details: for MIC: Coccidioides posadasii
Cryptococcus neoformans = test: Broth microdilution antifungal susceptibility, NCCLS M38-A; details: for MIC: Cryptococcus neoformans
A. fumigatus ATCC 204305 = test: as above; format: cell-based, Aspergillus fumigatus; details: minimal concentration inhibiting >95% growth, average of at least two assays (except I-l and I-x)
Fusarium solani = test: as above; format: cell-based; details: strain 96-1, 50% growth inhibition, range = minimum and maximum of multiple assays
C. immitis = test: microbe, parasite or virus in culture; format: cell-based, Coccidioides immitis; details: for MIC: Coccidioides immitis
Histoplasma capsulatum = format: cell-based
[1] = tested on: Trichophyton mentagrophytes; test: Dermatophyte broth microdilution, NCCLS M38-A; format: cell-based
Microsporum canis = test: Dermatophyte broth microdilution, NCCLS M38-A; format: cell-based
Microsporum gypseum = test: Dermatophyte broth microdilution, NCCLS M38-A; format: cell-based
Trichophyton rubrum = test: Dermatophyte broth microdilution, NCCLS M38-A; format: cell-based
Candida krusei = details: strain 6258; 95% growth inhibition
Epidermophyton floccosum = test: Dermatophyte broth microdilution, NCCLS M38-A; format: cell-based
Candida parapsilosis = details: strain 92019; 95% growth inhibition
[2] = tested on: Trichophyton interdigitale; test: Dermatophyte broth microdilution, NCCLS M38-A; format: cell-based

CC[C@H]1O[C@@H](C(C)C[C@H](C)/C=C/[C@H]2[C@@H](C)[C@@H]2/C=C/[C@@H]2O[C@H](CC(=O)O)CC(O)[C@H]2O)CC=C1C (stereo partly drawn) [Ambruticin S, (5S,6R)-5,6-dihydroxypoly-angioic acid, reference compound]
MIC (A. flavus ATCC 204304; Aspergillus flavus, ATCC204304, read-out: MIC0 A. flavus ATCC 204304): 28.4 µg/mL (≈ 59.7 µM)
MIC (S. apiospermum; strain 94-54, read-out: MIC S. apiospermum 94-54): > 32 µg/mL
MIC (S. apiospermum; strain 98-38, read-out: MIC S. apiospermum 98-38): > 32 µg/mL
MIC (S. apiospermum; strain 98-89, read-out: MIC S. apiospermum 98-89): 4 µg/mL (≈ 8.39 µM)
MIC (Blastomyces dermatitidis; read-out: MIC0 Blastomyces dermatitidis R-35629): 0.125 µg/mL (≈ 0.262 µM)
MIC (Blastomyces dermatitidis; strain 04-2167, >95% growth inhibition, read-out: MIC0 Blastomyces dermatitidis 04-2167): 0.125 µg/mL (≈ 0.262 µM)
MIC (Blastomyces dermatitidis; strain 04-2508, >95% growth inhibition, read-out: MIC0 Blastomyces dermatitidis 04-2508): 0.25 µg/mL (≈ 0.524 µM)
MIC (Blastomyces dermatitidis; strain 04-2915, >95% growth inhibition, read-out: MIC0 Blastomyces dermatitidis 04-2915): 1 µg/mL (≈ 2.1 µM)
MIC (Blastomyces dermatitidis; strain 05-106, >95% growth inhibition, read-out: MIC0 Blastomyces dermatitidis 05-106): 0.5 µg/mL (≈ 1.05 µM)
MIC (Blastomyces dermatitidis; strain 05-186, >95% growth inhibition, read-out: MIC0 Blastomyces dermatitidis 05-186): 0.125 µg/mL (≈ 0.262 µM)
MIC (Blastomyces dermatitidis; strain 05-1391, >95% growth inhibition, read-out: MIC0 Blastomyces dermatitidis 05-1391): 0.06 µg/mL (≈ 0.126 µM)
MIC (Blastomyces dermatitidis; strain 05-1707, >95% growth inhibition, read-out: MIC0 Blastomyces dermatitidis 05-1707): ≤ 0.015 µg/mL
MIC (Blastomyces dermatitidis; strain 05-1820, >95% growth inhibition, read-out: MIC0 Blastomyces dermatitidis 05-1820): 0.125 µg/mL (≈ 0.262 µM)
MIC (Blastomyces dermatitidis; strain 05-1829, >95% growth inhibition, read-out: MIC0 Blastomyces dermatitidis 05-1829): 0.25 µg/mL (≈ 0.524 µM)
MIC (Blastomyces dermatitidis; strain 05-2020, >95% growth inhibition, read-out: MIC0 Blastomyces dermatitidis 05-2020): 0.06 µg/mL (≈ 0.126 µM)
MIC (Blastomyces dermatitidis; strain R-3529, >95% growth inhibition, read-out: MIC0 Blastomyces dermatitidis R-3529): 0.06 µg/mL (≈ 0.126 µM)
MIC (C. posadasii; read-out: MIC C. posadasii C735): 4 µg/mL (≈ 8.39 µM)
MIC (C. posadasii; read-out: MIC C. posadasii RMSCC 2127): 2 µg/mL (≈ 4.2 µM)
MIC (C. posadasii; read-out: MIC C. posadasii Silveria): 2 µg/mL (≈ 4.2 µM)
MIC (Cryptococcus neoformans; read-out: MIC C. neoformans 97-14): 8 µg/mL (≈ 16.8 µM)
MIC (Cryptococcus neoformans; read-out: MIC C. neoformans 11239): 4 µg/mL (≈ 8.39 µM)
MIC (Cryptococcus neoformans; read-out: MIC C. neoformans 11240): 16 µg/mL (≈ 33.6 µM)
MIC (A. fumigatus ATCC 204305; Aspergillus fumigatus, ATCC204305, read-out: MIC0 A. fumigatus ATCC 204305): 29.3 µg/mL (≈ 61.5 µM)
MIC (Fusarium solani; Fusarium solani, read-out: MIC F. solani 96-1): > 32 µg/mL
MIC (C. immitis; read-out: MIC C. immitis RMS 2281): 2 µg/mL (≈ 4.2 µM)
MIC (C. immitis; read-out: MIC C. immitis RS): 2 µg/mL (≈ 4.2 µM)
MIC (C. immitis; read-out: MIC C. immitis S46): 4 µg/mL (≈ 8.39 µM)

CC[C@H]1O[C@@H](/C(C)=C/[C@H](C)/C=C/[C@H]2[C@@H](C)[C@@H]2/C=C/[C@@H]2O[C@H](CC(=O)O)C[C@H](N(C)C(C)C)[C@H]2O)CC=C1C [I-v, (5S,6R)-5-(N-isoproyl-methylamino)-6-hydroxypolyangioic acid]
MIC C. albicans 24433 (Candida albicans; strain 24433, 50% growth inhibition, range = minimum and maximum of multiple assays): >32 µg/mL
MIC C. albicans 90028 (Candida albicans; strain 90028, 50% growth inhibition, range = minimum and maximum of multiple assays): >32 µg/mL
MIC H. capsulatum G217B (Histoplasma capsulatum): <0.19 µg/mL
MIC H. capsulatum GS20 (Histoplasma capsulatum): <0.19 µg/mL
MIC0 A. flavus ATCC 204304 (A. flavus ATCC 204304): 1.1 µg/mL
MIC S. apiospermum 94-54 (S. apiospermum): >16 µg/mL
MIC S. apiospermum 98-38 (S. apiospermum): >16 µg/mL
MIC S. apiospermum 98-89 (S. apiospermum): 0.25 µg/mL (≈ 0.472 µM)
MIC0 Tm [1]: 4 µg/mL
MIC0 Blastomyces dermatitidis 04-2167 (Blastomyces dermatitidis): 0.06 µg/mL
MIC0 Blastomyces dermatitidis 04-2508 (Blastomyces dermatitidis): 0.06 µg/mL
MIC0 Blastomyces dermatitidis 04-2915 (Blastomyces dermatitidis): 0.125 µg/mL
MIC0 Blastomyces dermatitidis 05-106 (Blastomyces dermatitidis): 0.03 µg/mL
MIC0 Blastomyces dermatitidis 05-186 (Blastomyces dermatitidis): 0.06 µg/mL
MIC0 Blastomyces dermatitidis 05-1391 (Blastomyces dermatitidis): 0.03 µg/mL
MIC0 Blastomyces dermatitidis 05-1707 (Blastomyces dermatitidis): ≦0.015 μg/mL
MIC0 Blastomyces dermatitidis 05-1820 (Blastomyces dermatitidis): 0.06 µg/mL
MIC0 Blastomyces dermatitidis 05-1829 (Blastomyces dermatitidis): 0.06 µg/mL
MIC0 Blastomyces dermatitidis 05-2020 (Blastomyces dermatitidis): 0.06 µg/mL
MIC0 Blastomyces dermatitidis R-3529 (Blastomyces dermatitidis): 0.063 µg/mL
MIC0 Blastomyces dermatitidis R-35629 (Blastomyces dermatitidis): 0.03 µg/mL
MIC B. dermatitidis Gu (Blastomyces dermatitidis): 12.5 µg/mL (≈ 23.6 µM)
MIC B. dermatitidis Kr (Blastomyces dermatitidis): >12.5 µg/mL
MIC B. dermatitidis V (Blastomyces dermatitidis): 12.5 µg/mL (≈ 23.6 µM)
MIC0 Mc (Microsporum canis): 2 µg/mL
MIC C. posadasii C735 (C. posadasii): 0.25 µg/mL (≈ 0.472 µM)
MIC C. posadasii RMSCC 2127 (C. posadasii): 0.125 µg/mL (≈ 0.236 µM)
MIC C. posadasii Silveria (C. posadasii): 0.25 µg/mL (≈ 0.472 µM)
MIC C. neoformans 97-14 (Cryptococcus neoformans; strain 97-14, 50% growth inhibition, range = minimum and maximum of multiple assays): 0.5 µg/mL (≈ 0.944 µM)
MIC C. neoformans 11239 (Cryptococcus neoformans; strain 11239, 50% growth inhibition, range = minimum and maximum of multiple assays): 0.25 µg/mL (≈ 0.472 µM)
MIC C. neoformans 11240 (Cryptococcus neoformans; strain 11240, 50% growth inhibition, range = minimum and maximum of multiple assays): 0.25 to 0.5 µg/mL
MIC0 Mg (Microsporum gypseum): 2 µg/mL
MIC0 Tr (Trichophyton rubrum): 5.03 µg/mL
MIC0 A. fumigatus ATCC 204305 (A. fumigatus ATCC 204305): 1.32 µg/mL
MIC F. solani 96-1 (Fusarium solani): >16 µg/mL
MIC C. immitis RMS 2281 (C. immitis): 0.125 µg/mL (≈ 0.236 µM)
MIC C. immitis RS (C. immitis): 0.25 µg/mL (≈ 0.472 µM)
MIC C. immitis S46 (C. immitis): 0.125 µg/mL (≈ 0.236 µM)

CC[C@H]1O[C@@H](/C(C)=C/[C@H](C)/C=C/[C@H]2[C@@H](C)[C@@H]2/C=C/[C@@H]2O[C@H](CC(=O)O)C[C@H](N)[C@H]2O)CCC1C (some centres unmarked) [IV-a, 20,21-dihydro ambruticin VS-5]
MIC2 C. albicans 05-1422 (Candida albicans; strain 05-1422): ≦0.15 μg/mL
growth of Candida albicans strain 05-1422 (Candida albicans; strain 05-1422, statement in words): inhibits growth
MIC2 C. albicans 05-1424 (Candida albicans; strain 05-1424): >10 µg/mL
MIC2 C. albicans 05-1426 (Candida albicans; strain 05-1426): >10 µg/mL
MIC0 C. albicans 90028 (Candida albicans; strain 90028, 95% growth inhibition): >32 µg/mL
MIC2 H. capsulatum 05-959 (Histoplasma capsulatum): ≦0.15 μg/mL
MIC2 H. capsulatum 05-1097 (Histoplasma capsulatum): ≦0.15 μg/mL
MIC2 H. capsulatum 05-1159 (Histoplasma capsulatum): ≦0.15 μg/mL
MIC0 C. krusei 6258 (Candida krusei): >32 µg/mL
MIC0 Ef (Epidermophyton floccosum): 4 µg/mL
MIC0 A. flavus ATCC 204304 (A. flavus ATCC 204304): 0.18 µg/mL
MIC0 Tm [1]: 1 µg/mL
MIC2 B. dermatitidis 05-106 (Blastomyces dermatitidis): ≦0.15 μg/mL
MIC2 B. dermatitidis 05-186 (Blastomyces dermatitidis): ≦0.15 μg/mL
MIC2 B. dermatitidis 05-1291 (Blastomyces dermatitidis): ≦0.15 μg/mL
MIC0 Mc (Microsporum canis): 0.5 µg/mL
MIC0 C. parapsilosis 92019 (Candida parapsilosis): <0.0625 µg/mL
MIC0 Mg (Microsporum gypseum): 0.5 µg/mL
MIC0 Tr (Trichophyton rubrum): 0.5 µg/mL
MIC0 A. fumigatus ATCC 204305 (A. fumigatus ATCC 204305): 0.85 µg/mL
MIC0 Ti [2]: 0.39 µg/mL
MIC2 C. immitis 05-469 (C. immitis): ≦0.15 μg/mL
MIC2 C. immitis 05-955 (C. immitis): ≦0.15 μg/mL
MIC2 C. immitis 05-1387 (C. immitis): ≦0.15 μg/mL
